Three molecules from patent US20230106864A1, “COMPOSITIONS AND METHODS FOR THE TREATMENT OF INTRACELLULAR BACTERIAL INFECTIONS” (Endolytix Technology, Inc., priority 2020, published 2023) can be followed below.

This assay relates to M. abscessus. Nature of the assay: Cell growth assay of M. abscessus with ABlα plus antibiotic, Fractional Inhibitory Concentration (FIC) index. The class given is cell-based, Mycobacterium abscessus. The conditions noted are these: antibiotic in combination with ABlα; FIG. 5.
In the case of `NCC[C@H](O)C(=O)N[C@@H]1C[C@H](N)[C@@H](O[C@H]2O[C@H](CN)[C@@H](O)[C@H](O)[C@H]2O)[C@H](O)[C@H]1O[C@H]1O[C@H](CO)[C@@H](O)[C@H](N)[C@H]1O` [amikacin], the “effect on attenuation of M. abscessus growth by FIC index” value (shortened to “effect on attenuation … by FIC index”) is listed as “synergistic”.

For `C[C@@H](O)[C@H]1C(=O)N2C(C(=O)[O-])=C(SC3Cn4cnc[n+]4C3)[C@H](C)[C@H]12` (stereo partly drawn) [biapenem], the “effect on attenuation … by FIC index” value is “synergistic”. As for `CO[C@@]1(NC(=O)Cc2cccs2)C(=O)N2C(C(=O)O)=C(COC(N)=O)CS[C@@H]21` [cefoxitin], the “effect on attenuation … by FIC index” value is reported as “synergistic”.
